Measurements reported in patent US20150004134A1, “TREATMENT OF CANCER WITH HETEROCYCLIC INHIBITORS OF GLUTAMINASE” (Calithera Biosciences, Inc., priority 2012, published 2015).
Where two headings read alike, the source gives them in different places.

Test system: P493-6 (myc "on") cells
Test: Cell Proliferation Assay
Format: cell-based
Outline: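 P493-6 cells with myc on, 10,000 per well in RPMI/10% FBS, exposed to serially diluted compound (0.5% DMSO final) for 72 h at 37 °C, 5% CO2. Antiproliferative effect read by Cell Titer Glo luminescence or Viacount FACS viability count.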

[1] = P493-6, 72 h, read-out: Cell prolif P493 72 h IC50, P493 cells, 72 h
[2] = P493-6, 72 h, read-out: Cell prolif P493 72 h IC50, P493-6 cells, 72 h

Nc1nnc(CCCCc2ccc(NC(=O)Cc3ccccc3)nn2)s1 [Compound 342]
IC50 [1]: 2700 nM

COc1ccc(Cl)c(CC(=O)Nc2nnc(CCCCc3nnc(NC(=O)Cc4ccccc4)s3)s2)c1F [Compound 343]
IC50 [1]: 250 nM

COc1c(F)ccc(CC(=O)Nc2nnc(CCCCc3nnc(NC(=O)Cc4ccccc4)s3)s2)c1F [Compound 344]
IC50 [1]: 88 nM

O=C(Cc1ccccc1)Nc1nnc(CCCCc2nnc(NC(=O)Cc3c(Cl)ccc(O)c3F)s2)s1 [Compound 345]
IC50 [1]: 240 nM

O=C(Cc1ccccc1)Nc1nnc(CCCCc2nnc(NC(=O)Cc3ccc(F)c(O)c3F)s2)s1 [Compound 346]
IC50 [1]: 87 nM

O=C(Cc1ccccc1)Nc1nnc(CCSCCc2nnc(NC(=O)Cc3cccnc3)s2)s1 [Compound 347]
IC50 [1]: 710 nM

Nc1ccc(CCCCc2nnc(NC(=O)Cc3ccccc3)s2)nn1 [Compound 348, N-(5-(4-(6-aminopyridazin-3-yl)butyl)-1,3,4-thiadiazol-2-yl)-2-phenylacetamide]
IC50 [1]: 1700 nM

O=C(Cc1ccccc1)Nc1ccc(CCCCc2nnc(NC(=O)[C@@H](O)c3ccccc3)s2)nn1 [Compound 350]
IC50 [1]: 29 nM

O=C(Cc1ccccc1)Nc1ccc(CCCCc2nnc(NC(=O)NCc3ccccc3)s2)nn1 [Compound 352]
IC50 [1]: 130 nM

O=C(CCN1CCOCC1)OC(C(=O)Nc1nnc(CCCCc2nnc(NC(=O)C(O)c3cccc(Cl)c3)s2)s1)c1cccc(Cl)c1 (stereo not drawn) [Compound 358]
IC50 [1]: 110 nM

O=C(Cc1ccccc1)Nc1nnc(CCSCCc2nnc(NC(=O)Cc3ccccn3)s2)s1 [Compound 359]
IC50 [1]: 910 nM

O=C(Cc1ccncc1)Nc1nnc(CCSCCc2nnc(NC(=O)Cc3ccncc3)s2)s1 [Compound 361]
IC50 [1]: > 20000 nM

O=C(Cc1cccc(Cn2cccn2)c1)Nc1nnc(CCCCc2nnc(NC(=O)Cc3cccc(Cn4cccn4)c3)s2)s1 [Compound 362]
IC50 [1]: 54 nM

O=C(Cc1cccc(-n2ccnc2)c1)Nc1nnc(CCCCc2nnc(NC(=O)Cc3cccc(-n4ccnc4)c3)s2)s1 [Compound 363]
IC50 [1]: > 20000 nM

CC(C)(C)OC(=O)NCc1cccc(CC(=O)Nc2ccc(CCCCc3nnc(NC(=O)Cc4ccccc4)s3)nn2)c1 [Compound 367]
IC50 [1]: 6 nM

CC(C)COC(=O)Nc1nnc(CCCCc2nnc(NC(=O)Cc3ccccc3)s2)s1 [Compound 370]
IC50 [1]: 700 nM

O=C(Cc1ccccc1)Nc1nnc(CCCCc2nnc(NC(=O)Oc3ccccc3)s2)s1 [Compound 371]
IC50 (P493-6, read-out: Cell prolif P493 72 h IC50, P493 cells, 72 h): 5200 nM

O=C(Cc1ccccc1)Nc1nnc(CCSCc2nnc(NC(=O)Cc3cccc(Cl)c3)s2)s1 [Compound 372]
IC50 [1]: 150 nM

O=C(Cc1ccccc1)Nc1nnc(CCSCc2nnc(NC(=O)Cc3ccccn3)s2)s1 [Compound 373]
IC50 [1]: 280 nM

O=C(Cc1ccccc1)Nc1nnc(CCCCc2nnc(NC(=O)OCc3ccccc3)s2)s1 [Compound 374]
IC50 [1]: 470 nM

O=C(Cc1ccccc1)Nc1nnc(CCSCc2nnc(NC(=O)C(O)c3cccc(Cl)c3)s2)s1 (stereo not drawn) [Compound 376]
IC50 [1]: 91 nM

O=C(Cc1ccccc1)Nc1nnc(CCSCc2nnc(NC(=O)[C@@H](O)c3ccccc3)s2)s1 [Compound 377]
IC50 [1]: 100 nM

O=C(Cc1ccccc1)Nc1nnc(CCSCc2nnc(NC(=O)Cc3cccc(OCCN4CCOCC4)c3)s2)s1 [Compound 378]
IC50 [1]: 90 nM

COC(=O)Nc1nnc(CCCCc2nnc(NC(=O)Cc3ccccc3)s2)s1 [Compound 387]
IC50 [1]: 2300 nM

CCCCOC(=O)Nc1nnc(CCCCc2nnc(NC(=O)Cc3ccccc3)s2)s1 [Compound 388]
IC50 [1]: 750 nM

O=C(Cc1ccccc1)Nc1ccc(CCCCc2nnc(NC(=O)C(OC(=O)CCN3CCOCC3)c3cccc(Cl)c3)s2)nn1 (stereo not drawn) [Compound 389]
IC50 [1]: 32 nM

O=C(Cc1ccccc1)Nc1nnc(CCCCc2nnc(NC(=O)Cc3cccc(OCCN4CCOCC4)c3)s2)s1 [Compound 390]
IC50 [1]: 160 nM

CN(Cc1cccc(CC(=O)Nc2nnc(CCCCc3nnc(NC(=O)Cc4ccccc4)s3)s2)c1)C(=O)OC(C)(C)C [Compound 391]
IC50 [1]: 27 nM

O=C(Cc1ccccc1)Nc1nnc(CCCCc2nnc(NC(=O)Cc3cccc(Cn4cccn4)c3)s2)s1 [Compound 392]
IC50 [1]: 72 nM

CNCc1cccc(CC(=O)Nc2nnc(CCCCc3nnc(NC(=O)Cc4ccccc4)s3)s2)c1 [Compound 393]
IC50 [2]: 900 nM

CN(C)Cc1cccc(CC(=O)Nc2nnc(CCCCc3nnc(NC(=O)Cc4ccccc4)s3)s2)c1 [Compound 394]
IC50 [2]: 1200 nM

CN(Cc1cccc(CC(=O)Nc2nnc(CCCCc3ccc(NC(=O)Cc4ccccc4)nn3)s2)c1)C(=O)OC(C)(C)C [Compound 396]
IC50 [2]: 5 nM

CC(C)(C)OC(=O)Nc1cccc(CC(=O)Nc2nnc(CCCCc3ccc(NC(=O)Cc4ccccc4)nn3)s2)c1 [Compound 399]
IC50 [2]: 26 nM

O=C(Cc1ccccc1)Nc1ccc(CCCCc2nnc(NC(=O)NC3CCCC3)s2)nn1 [Compound 403]
IC50 [2]: 120 nM

O=C(Cc1ccccc1)Nc1nnc(CCCCc2ccc(NC(=O)NCc3ccccc3)nn2)s1 [Compound 405]
IC50 [2]: 670 nM

NCc1ccc(CC(=O)Nc2nnc(CCCCc3ccc(NC(=O)Cc4ccccc4)nn3)s2)cc1 [Compound 407]
IC50 [2]: 44 nM

Nc1cccc(CC(=O)Nc2nnc(CCCCc3ccc(NC(=O)Cc4ccccc4)nn3)s2)c1 [Compound 409]
IC50 [2]: 37 nM

Nc1ccc(CCCCc2nnc(NC(=O)C(O)c3cccc(Cl)c3)s2)nn1 (stereo not drawn) [Compound 411]
IC50 [2]: 740 nM

O=C(Cc1ccccc1)Nc1ccc(CCCCc2nnc(NC(=O)C(O)c3cccc(Br)c3)s2)nn1 (stereo not drawn) [Compound 415]
IC50 [2]: 18 nM

Cc1cccc(CNC(=O)Nc2nnc(CCCCc3nnc(NC(=O)Cc4ccccc4)s3)s2)c1 [Compound 417]
IC50 [2]: 320 nM

CCNC(=O)Nc1ccc(CCCCc2nnc(NC(=O)Cc3cccc(CNC(=O)OC(C)(C)C)c3)s2)nn1 [Compound 420]
IC50 [2]: 70 nM

CC(C)(C)OC(=O)NCc1cccc(CC(=O)Nc2nnc(CCCCc3ccc(NC(=O)C(O)c4cccc(Cl)c4)nn3)s2)c1 (stereo not drawn) [Compound 422]
IC50 [2]: 6 nM

CC(=O)Nc1ccc(CC(=O)Nc2nnc(CCCCc3ccc(NC(=O)Cc4ccccc4)nn3)s2)cc1 [Compound 426]
IC50 [2]: 33 nM

O=C(Cc1ccccc1)Nc1ccc(CCCCc2nnc(NC(=O)Cc3cccc(OCCO)c3)s2)nn1 [Compound 427]
IC50 [2]: 27 nM

COCCOc1cccc(CC(=O)Nc2nnc(CCCCc3ccc(NC(=O)Cc4ccccc4)nn3)s2)c1 [Compound 428]
IC50 [2]: 19 nM

O=C(Cc1ccccc1)Nc1ccc(CCCCc2nnc(NC(=O)Cc3cccc(CNC(=O)c4ccccc4)c3)s2)nn1 [Compound 432]
IC50 [2]: 4 nM

O=C(Cc1ccccc1)NCc1cccc(CC(=O)Nc2nnc(CCCCc3ccc(NC(=O)Cc4ccccc4)nn3)s2)c1 [Compound 435]
IC50 [2]: 6 nM

NCc1cccc(CC(=O)Nc2nnc(CCCCc3nnc(NC(=O)Cc4ccccc4)s3)s2)c1 [Compound 437]
IC50 [2]: 72 nM

CC(C)NC(=O)Nc1nnc(CCCCc2nnc(NC(=O)Cc3ccccc3)s2)s1 [Compound 438]
IC50 [2]: 880 nM

CCCC(=O)OC(C(=O)Nc1nnc(CCCCc2ccc(NC(=O)Cc3ccccc3)nn2)s1)c1cccc(Cl)c1 (stereo not drawn) [Compound 439]
IC50 (read-out: Cell prolif P493 72 h IC50, P493-6 cells, 72 h): 56 nM

O=C(CN1CCOCC1)NCc1ccc(CC(=O)Nc2nnc(CCCCc3ccc(NC(=O)Cc4ccccc4)nn3)s2)cc1 [Compound 442]
IC50 [2]: 25 nM

O=C(Nc1ccc(CCCCc2nnc(NC(=O)C(O)c3cccc(Cl)c3)s2)nn1)C(O)c1cccc(Cl)c1 (stereo not drawn) [Compound 446]
IC50 [2]: 150 nM

O=C(Cc1cccc(Cl)c1)Nc1ccc(CCCCc2nnc(NC(=O)C(O)c3cccc(Cl)c3)s2)nn1 (stereo not drawn) [Compound 448]
IC50 [2]: 51 nM

CC(=O)NCCc1cccc(CC(=O)Nc2nnc(CCCCc3ccc(NC(=O)Cc4ccccc4)nn3)s2)c1 [Compound 454]
IC50 [2]: 130 nM

O=C(Cc1ccccc1)Nc1ccc(CCCCc2nnc(NC(=O)Cc3cccc(CNC(=O)C(F)(F)F)c3)s2)nn1 [Compound 458]
IC50 [2]: 13 nM

CC(=O)NCc1cccc(CC(=O)Nc2nnc(CCCCc3ccc(NC(C)=O)nn3)s2)c1 [Compound 459]
IC50 [2]: 570 nM

CC(=O)Nc1ccc(CCCCc2nnc(NC(=O)Cc3cccc(CNC(=O)CC(C)C)c3)s2)nn1 [Compound 461]
IC50 [2]: 62 nM

CC(C)(C)OC(=O)NCc1ccccc1CC(=O)Nc1nnc(CCCCc2ccc(NC(=O)Cc3ccccc3)nn2)s1 [Compound 464]
IC50 [2]: 59 nM

COc1cccc(CC(=O)Nc2ccc(CCCCc3nnc(NC(=O)C(O)c4cccc(Cl)c4)s3)nn2)c1 (stereo not drawn) [Compound 467]
IC50 [2]: 47 nM

CC(C(=O)Nc1ccc(CCCCc2nnc(NC(=O)C(O)c3cccc(Cl)c3)s2)nn1)c1ccccc1 (stereo not drawn) [Compound 468]
IC50 [2]: 270 nM

CN(C)C(=O)Cc1cccc(CC(=O)Nc2nnc(CCCCc3ccc(NC(=O)Cc4ccccc4)nn3)s2)c1 [Compound 472]
IC50 [2]: 24 nM

O=C(Cc1ccccc1)Nc1ccc(CCCCc2nnc(NC(=O)Cc3cccc(CC(=O)N4CCC(F)(F)CC4)c3)s2)nn1 [Compound 474]
IC50 [2]: 4 nM

O=C(Cc1ccccc1)Nc1ccc(CCCCc2nnc(NC(=O)Cc3cccc(CN4CCCCC4=O)c3)s2)nn1 [Compound 476]
IC50 [2]: 12 nM

C[C@@](O)(C(=O)NCc1cccc(CC(=O)Nc2nnc(CCCCc3ccc(NC(=O)Cc4ccccc4)nn3)s2)c1)C(F)(F)F [Compound 477]
IC50 [2]: 15 nM

CN(C)CC(=O)Nc1ccc(CCCCc2nnc(NC(=O)Cc3cccc(CNC(=O)OC(C)(C)C)c3)s2)nn1 [Compound 478]
IC50 [2]: 46 nM

O=C(Cc1ccccc1)Nc1ccc(CCCCc2nnc(NC(=O)Cc3cccc(CN4CCCC4=O)c3)s2)nn1 [Compound 479]
IC50 [2]: 30 nM

O=C(Cc1ccccc1)Nc1ccc(CCCCc2nnc(NC(=O)Cc3cccc(OCc4ccccn4)c3)s2)nn1 [Compound 480]
IC50 [2]: 6300 nM

CC(C(=O)Nc1nnc(CCCCc2ccc(NC(=O)Cc3cccc(CNC(=O)OC(C)(C)C)c3)nn2)s1)c1ccccc1 (stereo not drawn) [Compound 489]
IC50 [2]: 23 nM

CC(=O)Nc1nnc(CCCCc2ccc(NC(=O)Cc3cccc(CNC(=O)OC(C)(C)C)c3)nn2)s1 [Compound 491]
IC50 [2]: 23 nM
